Reference: ChEMBL document CHEMBL6071157, “Improved N-phenylpyrrolamide inhibitors of DNA gyrase as antibacterial agents for high-priority bacterial strains” (Eur J Med Chem, 2024)
≈ marks a conversion by molar mass, not a printed value.

target: DNA gyrase (Escherichia coli, UniProt P0AES4+P0AES6); experiment: Inhibition of Escherichia coli DNA gyrase by supercoiling plate assay; format: protein-complex assay; conditions: not given

SMILES | IC50
Cc1[nH]c(C(=O)Nc2ccc(-n3nn[nH]c3=O)cc2N2CCN(c3ccccc3)CC2)c(Cl)c1Cl | 7.8 nM
Cc1[nH]c(C(=O)Nc2ccc(-c3noc(=O)[nH]3)cc2N2CCN(C(=O)OC(C)(C)C)CC2)c(Cl)c1Cl | 13.7 nM
Cc1[nH]c(C(=O)Nc2ccc(-c3noc(=O)[nH]3)cc2N2CCC(NC(=O)OC(C)(C)C)CC2)c(Cl)c1Cl | 6.7 nM

target: T1, DNA topoisomerase 2-alpha (Homo sapiens, UniProt P11388); experiment: (§1) Inhibition of human DNA topoisomerase 2-alpha using linear pBR322 as substrate assessed as conversion of NADH to NAD+ preincubated for 10 to 15 mins in presence of pyruvate kinase/lactate dehydrogenase mix followed by ATP addition and measured after 30 mins by ATPase assay; conditions: not given
T1 sequence (P11388 whole entry): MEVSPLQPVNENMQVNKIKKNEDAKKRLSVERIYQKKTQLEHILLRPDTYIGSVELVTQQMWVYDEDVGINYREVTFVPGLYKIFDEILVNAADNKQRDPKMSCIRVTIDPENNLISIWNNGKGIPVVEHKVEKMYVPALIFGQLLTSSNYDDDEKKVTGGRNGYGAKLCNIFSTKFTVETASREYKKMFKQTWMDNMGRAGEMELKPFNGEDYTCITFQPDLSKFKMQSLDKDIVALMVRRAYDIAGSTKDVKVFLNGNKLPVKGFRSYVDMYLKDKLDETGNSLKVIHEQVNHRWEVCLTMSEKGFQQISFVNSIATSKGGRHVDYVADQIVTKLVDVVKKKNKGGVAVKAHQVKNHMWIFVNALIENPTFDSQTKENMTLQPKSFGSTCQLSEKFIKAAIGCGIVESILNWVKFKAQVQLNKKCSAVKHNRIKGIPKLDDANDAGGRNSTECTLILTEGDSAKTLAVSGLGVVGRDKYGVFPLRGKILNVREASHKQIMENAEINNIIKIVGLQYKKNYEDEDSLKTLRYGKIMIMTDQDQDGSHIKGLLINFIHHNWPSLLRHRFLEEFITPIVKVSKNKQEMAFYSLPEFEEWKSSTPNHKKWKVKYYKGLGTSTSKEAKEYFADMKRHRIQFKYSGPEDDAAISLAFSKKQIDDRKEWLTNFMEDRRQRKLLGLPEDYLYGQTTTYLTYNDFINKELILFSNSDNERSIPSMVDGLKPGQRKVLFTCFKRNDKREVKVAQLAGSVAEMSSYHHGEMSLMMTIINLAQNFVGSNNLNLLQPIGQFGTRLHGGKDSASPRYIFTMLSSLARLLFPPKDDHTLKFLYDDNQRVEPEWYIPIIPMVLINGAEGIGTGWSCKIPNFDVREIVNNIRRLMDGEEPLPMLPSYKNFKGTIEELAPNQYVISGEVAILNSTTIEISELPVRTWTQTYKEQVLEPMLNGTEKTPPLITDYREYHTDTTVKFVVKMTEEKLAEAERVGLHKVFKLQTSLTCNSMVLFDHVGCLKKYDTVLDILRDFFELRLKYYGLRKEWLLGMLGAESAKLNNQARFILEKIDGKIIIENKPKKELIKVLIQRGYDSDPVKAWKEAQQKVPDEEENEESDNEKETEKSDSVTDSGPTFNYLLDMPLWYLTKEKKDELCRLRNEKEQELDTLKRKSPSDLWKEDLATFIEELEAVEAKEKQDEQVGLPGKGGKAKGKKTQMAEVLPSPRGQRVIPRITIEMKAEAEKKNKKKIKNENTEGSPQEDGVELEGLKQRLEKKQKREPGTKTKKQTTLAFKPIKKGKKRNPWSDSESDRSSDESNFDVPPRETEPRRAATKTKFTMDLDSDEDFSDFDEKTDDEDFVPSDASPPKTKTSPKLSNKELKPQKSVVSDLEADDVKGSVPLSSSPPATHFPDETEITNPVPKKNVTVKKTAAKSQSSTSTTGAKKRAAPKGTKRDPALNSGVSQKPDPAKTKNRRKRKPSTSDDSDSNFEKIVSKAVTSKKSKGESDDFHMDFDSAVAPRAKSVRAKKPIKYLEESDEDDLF

SMILES | IC50
Cc1[nH]c(C(=O)Nc2ccc(-n3nn[nH]c3=O)cc2N2CCN(c3ccccc3)CC2)c(Cl)c1Cl | 33.6 µM

test system: Escherichia coli; experiment: Inhibition of Escherichia coli DNA topoisomerase-IV assessed as residual activity at 1 uM by relaxation plate assay relative to control; conditions: not given

SMILES | Activity
Cc1[nH]c(C(=O)Nc2ccc(-c3noc(=O)[nH]3)cc2N2CCN(C(=O)OC(C)(C)C)CC2)c(Cl)c1Cl | 71%
Cc1[nH]c(C(=O)Nc2ccc(-c3noc(=O)[nH]3)cc2N2CCC(NC(=O)OC(C)(C)C)CC2)c(Cl)c1Cl | 62%

test system: Escherichia coli; experiment: Inhibition of Escherichia coli DNA topoisomerase-IV assessed as residual activity at 10 uM by relaxation plate assay relative to control; conditions: not given

SMILES | Activity
Cc1[nH]c(C(=O)Nc2ccc(-n3nn[nH]c3=O)cc2N2CCN(c3ccccc3)CC2)c(Cl)c1Cl | 104%

target: T1, DNA topoisomerase 2-alpha; experiment: as §1, with “NAD+ by measuring residual activity at 100 uM” for “NAD+”, “assay relative to control” for “assay”; conditions: time 40-55 min

SMILES | Activity
Cc1[nH]c(C(=O)Nc2ccc(-c3noc(=O)[nH]3)cc2N2CCN(C(=O)OC(C)(C)C)CC2)c(Cl)c1Cl | 95%
Cc1[nH]c(C(=O)Nc2ccc(-c3noc(=O)[nH]3)cc2N2CCC(NC(=O)OC(C)(C)C)CC2)c(Cl)c1Cl | 30%

test system: Staphylococcus aureus; experiment: Antibacterial activity against Staphylococcus aureus ATCC 29213 assessed as inhibition of bacterial growth by broth microdilution method; format: functional; conditions: not given

SMILES | MIC
Cc1[nH]c(C(=O)Nc2ccc(-n3nn[nH]c3=O)cc2N2CCN(c3ccccc3)CC2)c(Cl)c1Cl | > 32 µg/mL
Cc1[nH]c(C(=O)Nc2ccc(-c3noc(=O)[nH]3)cc2N2CCN(C(=O)OC(C)(C)C)CC2)c(Cl)c1Cl | > 64 µg/mL
Cc1[nH]c(C(=O)Nc2ccc(-c3noc(=O)[nH]3)cc2N2CCC(NC(=O)OC(C)(C)C)CC2)c(Cl)c1Cl | > 64 µg/mL

test system: Staphylococcus aureus; experiment: Antibacterial against methicillin resistant Staphylococcus aureus ATCC 43300 assessed as inhibition of bacterial growth by broth microdilution method; format: functional; conditions: time 24 hrs

SMILES | MIC
Cc1[nH]c(C(=O)Nc2ccc(-n3nn[nH]c3=O)cc2N2CCN(c3ccccc3)CC2)c(Cl)c1Cl | > 32 µg/mL
Cc1[nH]c(C(=O)Nc2ccc(-c3noc(=O)[nH]3)cc2N2CCN(C(=O)OC(C)(C)C)CC2)c(Cl)c1Cl | > 64 µg/mL
Cc1[nH]c(C(=O)Nc2ccc(-c3noc(=O)[nH]3)cc2N2CCC(NC(=O)OC(C)(C)C)CC2)c(Cl)c1Cl | 0.5 µg/mL (≈ 0.907 µM)

test system: Staphylococcus aureus; experiment: Antibacterial against vancomycin-intermediate Staphylococcus aureus ATCC 700699 assessed as inhibition of bacterial growth by broth dilution method; format: functional; conditions: not given

SMILES | MIC
Cc1[nH]c(C(=O)Nc2ccc(-n3nn[nH]c3=O)cc2N2CCN(c3ccccc3)CC2)c(Cl)c1Cl | 0.5 µg/mL (≈ 0.974 µM)
Cc1[nH]c(C(=O)Nc2ccc(-c3noc(=O)[nH]3)cc2N2CCN(C(=O)OC(C)(C)C)CC2)c(Cl)c1Cl | < 0.031 µg/mL
Cc1[nH]c(C(=O)Nc2ccc(-c3noc(=O)[nH]3)cc2N2CCC(NC(=O)OC(C)(C)C)CC2)c(Cl)c1Cl | 0.063 µg/mL (≈ 0.114 µM)

test system: Enterococcus faecalis; experiment: Antibacterial activity against Enterococcus faecalis ATCC 29212 assessed as inhibition of bacterial growth by broth microdilution method; format: functional; conditions: not given

SMILES | MIC
Cc1[nH]c(C(=O)Nc2ccc(-n3nn[nH]c3=O)cc2N2CCN(c3ccccc3)CC2)c(Cl)c1Cl | 0.5 µg/mL (≈ 0.974 µM)
Cc1[nH]c(C(=O)Nc2ccc(-c3noc(=O)[nH]3)cc2N2CCN(C(=O)OC(C)(C)C)CC2)c(Cl)c1Cl | < 0.031 µg/mL
Cc1[nH]c(C(=O)Nc2ccc(-c3noc(=O)[nH]3)cc2N2CCC(NC(=O)OC(C)(C)C)CC2)c(Cl)c1Cl | < 0.031 µg/mL

test system: Enterococcus faecium; experiment: Antibacterial activity against vancomycin-resistant Enterococcus faecium ATCC 700221 assessed as inhibition of bacterial growth by broth microdilution method; format: functional; conditions: not given

SMILES | MIC
Cc1[nH]c(C(=O)Nc2ccc(-n3nn[nH]c3=O)cc2N2CCN(c3ccccc3)CC2)c(Cl)c1Cl | 0.5 µg/mL (≈ 0.974 µM)
Cc1[nH]c(C(=O)Nc2ccc(-c3noc(=O)[nH]3)cc2N2CCN(C(=O)OC(C)(C)C)CC2)c(Cl)c1Cl | 0.25 µg/mL (≈ 0.465 µM)
Cc1[nH]c(C(=O)Nc2ccc(-c3noc(=O)[nH]3)cc2N2CCC(NC(=O)OC(C)(C)C)CC2)c(Cl)c1Cl | 0.5 µg/mL (≈ 0.907 µM)

test system: Escherichia coli; experiment: Antibacterial activity against Escherichia coli ATCC 25922 assessed as inhibition of bacterial growth by broth microdilution method; format: functional; conditions: not given

SMILES | MIC
Cc1[nH]c(C(=O)Nc2ccc(-n3nn[nH]c3=O)cc2N2CCN(c3ccccc3)CC2)c(Cl)c1Cl | > 32 µg/mL
Cc1[nH]c(C(=O)Nc2ccc(-c3noc(=O)[nH]3)cc2N2CCN(C(=O)OC(C)(C)C)CC2)c(Cl)c1Cl | > 64 µg/mL
Cc1[nH]c(C(=O)Nc2ccc(-c3noc(=O)[nH]3)cc2N2CCC(NC(=O)OC(C)(C)C)CC2)c(Cl)c1Cl | > 64 µg/mL

test system: Enterobacter cloacae; experiment: Antibacterial activity against Enterobacter cloacae subsp. cloacae ATCC 13047 assessed as inhibition of bacterial growth by broth microdilution method; format: functional; conditions: not given

SMILES | MIC
Cc1[nH]c(C(=O)Nc2ccc(-n3nn[nH]c3=O)cc2N2CCN(c3ccccc3)CC2)c(Cl)c1Cl | > 32 µg/mL
Cc1[nH]c(C(=O)Nc2ccc(-c3noc(=O)[nH]3)cc2N2CCN(C(=O)OC(C)(C)C)CC2)c(Cl)c1Cl | > 64 µg/mL
Cc1[nH]c(C(=O)Nc2ccc(-c3noc(=O)[nH]3)cc2N2CCC(NC(=O)OC(C)(C)C)CC2)c(Cl)c1Cl | > 64 µg/mL

test system: Pseudomonas aeruginosa; experiment: Antibacterial activity against Pseudomonas aeruginosa ATCC 27853 assessed as inhibition of bacterial growth by broth microdilution metho; format: functional; conditions: not given

SMILES | MIC
Cc1[nH]c(C(=O)Nc2ccc(-n3nn[nH]c3=O)cc2N2CCN(c3ccccc3)CC2)c(Cl)c1Cl | > 32 µg/mL
Cc1[nH]c(C(=O)Nc2ccc(-c3noc(=O)[nH]3)cc2N2CCN(C(=O)OC(C)(C)C)CC2)c(Cl)c1Cl | > 64 µg/mL
Cc1[nH]c(C(=O)Nc2ccc(-c3noc(=O)[nH]3)cc2N2CCC(NC(=O)OC(C)(C)C)CC2)c(Cl)c1Cl | > 64 µg/mL

test system: Klebsiella pneumoniae; experiment: Antibacterial activity against Klebsiella pneumoniae ATCC 10031 assessed as inhibition of bacterial growth by broth microdilution method; format: functional; conditions: not given

SMILES | MIC
Cc1[nH]c(C(=O)Nc2ccc(-n3nn[nH]c3=O)cc2N2CCN(c3ccccc3)CC2)c(Cl)c1Cl | > 32 µg/mL
Cc1[nH]c(C(=O)Nc2ccc(-c3noc(=O)[nH]3)cc2N2CCN(C(=O)OC(C)(C)C)CC2)c(Cl)c1Cl | > 64 µg/mL
Cc1[nH]c(C(=O)Nc2ccc(-c3noc(=O)[nH]3)cc2N2CCC(NC(=O)OC(C)(C)C)CC2)c(Cl)c1Cl | > 64 µg/mL

test system: Acinetobacter baumannii; experiment: Antibacterial activity against Acinetobacter baumannii ATCC 17978 assessed as inhibition of bacterial growth by broth microdilution method; format: functional; conditions: not given

SMILES | MIC
Cc1[nH]c(C(=O)Nc2ccc(-n3nn[nH]c3=O)cc2N2CCN(c3ccccc3)CC2)c(Cl)c1Cl | > 32 µg/mL
Cc1[nH]c(C(=O)Nc2ccc(-c3noc(=O)[nH]3)cc2N2CCN(C(=O)OC(C)(C)C)CC2)c(Cl)c1Cl | > 64 µg/mL
Cc1[nH]c(C(=O)Nc2ccc(-c3noc(=O)[nH]3)cc2N2CCC(NC(=O)OC(C)(C)C)CC2)c(Cl)c1Cl | > 64 µg/mL

test system: MCF7; experiment: Cytotoxicity against human MCF7 cells assessed as cell viability at 50 uM incubated for 72 hrs by CellTiter 96 aqueous one solution reagent based MTS assay relative to control; format: functional; conditions: read-out: Activity

SMILES | viability at 50 µM
Cc1[nH]c(C(=O)Nc2ccc(-n3nn[nH]c3=O)cc2N2CCN(c3ccccc3)CC2)c(Cl)c1Cl | 58%
Cc1[nH]c(C(=O)Nc2ccc(-c3noc(=O)[nH]3)cc2N2CCN(C(=O)OC(C)(C)C)CC2)c(Cl)c1Cl | 78%
Cc1[nH]c(C(=O)Nc2ccc(-c3noc(=O)[nH]3)cc2N2CCC(NC(=O)OC(C)(C)C)CC2)c(Cl)c1Cl | 44%

test system: not listed separately; experiment: Metabolic stability in human liver microsomes assessed as half life at 1 uM preincubated for 10 mins followed by NADPH addition and measured after 5 to 60 mins by LC-MS/MS analysis; format: ADME, Microsome; conditions: time 15-70 min

SMILES | half-life at 1 µM
Cc1[nH]c(C(=O)Nc2ccc(-c3noc(=O)[nH]3)cc2N2CCC(NC(=O)OC(C)(C)C)CC2)c(Cl)c1Cl | 76.2 min

test system: not listed separately; experiment: Metabolic stability in human liver microsomes assessed as intrinsic clearance at 1 uM preincubated for 10 mins followed by NADPH addition and measured after 5 to 60 mins by LC-MS/MS analysis; format: ADME, Microsome; conditions: time 15-70 min, read-out: CLH

SMILES | microsomal CLint at 1 µM
Cc1[nH]c(C(=O)Nc2ccc(-c3noc(=O)[nH]3)cc2N2CCN(C(=O)OC(C)(C)C)CC2)c(Cl)c1Cl | 18.2 µL/min/mg

test system: not listed separately; experiment: Metabolic stability in mouse liver microsomes assessed as half life at 1 uM preincubated for 10 mins followed by NADPH addition and measured after 5 to 60 mins by LC-MS/MS analysis; format: ADME, Microsome; conditions: time 15-70 min

SMILES | half-life at 1 µM
Cc1[nH]c(C(=O)Nc2ccc(-c3noc(=O)[nH]3)cc2N2CCN(C(=O)OC(C)(C)C)CC2)c(Cl)c1Cl | > 145 min

test system: not listed separately; experiment: Metabolic stability in mouse liver microsomes assessed as intrinsic clearance at 1 uM preincubated for 10 mins followed by NADPH addition and measured after 5 to 60 mins by LC-MS/MS analysis; format: ADME, Microsome; conditions: time 15-70 min, read-out: CLH

SMILES | microsomal CLint at 1 µM
Cc1[nH]c(C(=O)Nc2ccc(-c3noc(=O)[nH]3)cc2N2CCN(C(=O)OC(C)(C)C)CC2)c(Cl)c1Cl | < 9.6 µL/min/mg
